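Method: 48-hour compound exposure of cells in 96-well plates, five concentrations, linear interpolation of endpoints. TGI marks complete inhibition of growth.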
Tests used:
Experiment in all cases: NCI-60 cell line screen, 48 h
EKVX NSCLC = system: EKVX NSCLC
HCC-2998 colon = system: HCC-2998 colon
MALME-3M melanoma = system: MALME-3M melanoma
TK-10 renal = system: TK-10 renal
K-562 leukemia = system: K-562 leukemia
CCRF-CEM leukemia = system: CCRF-CEM leukemia
HCT-116 colon = system: HCT-116 colon
SF-268 CNS = system: SF-268 CNS
MOLT-4 leukemia = system: MOLT-4 leukemia
A498 renal = system: A498 renal
U251 CNS = system: U251 CNS
OVCAR-3 ovarian = system: OVCAR-3 ovarian
DLD-1 colon = system: DLD-1 colon
NCI-H23 lung = system: NCI-H23 lung
HOP-92 NSCLC = system: HOP-92 NSCLC
SK-OV-3 ovarian = system: SK-OV-3 ovarian
KM20L2 colon = system: KM20L2 colon
SR leukemia = system: SR leukemia
OVCAR-4 ovarian = system: OVCAR-4 ovarian
SK-MEL-28 melanoma = system: SK-MEL-28 melanoma
SNB-75 CNS = system: SNB-75 CNS
HT29 colon = system: HT29 colon
DMS 114 small cell lung = system: DMS 114 small cell lung
LOX IMVI melanoma = system: LOX IMVI melanoma
COLO 205 colon = system: COLO 205 colon
SNB-19 CNS = system: SNB-19 CNS
UACC-257 melanoma = system: UACC-257 melanoma
SF-295 CNS = system: SF-295 CNS
SK-MEL-5 melanoma = system: SK-MEL-5 melanoma
KM12 colon = system: KM12 colon
ACHN renal = system: ACHN renal
LXFL 529 NSCLC = system: LXFL 529 NSCLC
SK-MEL-2 melanoma = system: SK-MEL-2 melanoma
SN12C renal = system: SN12C renal
HOP-62 NSCLC = system: HOP-62 NSCLC
RXF 393 renal = system: RXF 393 renal
SNB-78 CNS = system: SNB-78 CNS
OVCAR-5 ovarian = system: OVCAR-5 ovarian
OVCAR-8 ovarian = system: OVCAR-8 ovarian
NCI-H226 lung = system: NCI-H226 lung
IGROV1 ovarian = system: IGROV1 ovarian
UACC-62 melanoma = system: UACC-62 melanoma
NCI-H460 lung = system: NCI-H460 lung
NCI-H522 lung = system: NCI-H522 lung
DMS 273 small cell lung = system: DMS 273 small cell lung
HCT-15 colon = system: HCT-15 colon
XF 498 CNS = system: XF 498 CNS
A549 NSCLC = system: A549 NSCLC
HL-60(TB) leukemia = system: HL-60(TB) leukemia
SF-539 CNS = system: SF-539 CNS
M14 melanoma = system: M14 melanoma
SW-620 colon = system: SW-620 colon
CAKI-1 renal = system: CAKI-1 renal
UO-31 renal = system: UO-31 renal
M19-MEL melanoma = system: M19-MEL melanoma
786-0 renal = system: 786-0 renal
RPMI-8226 leukemia = system: RPMI-8226 leukemia

Measured: TGI

Nc1nc(SCc2ccc([N+](=O)[O-])cc2)nc2c1ncn2C1OC(COP(=O)(O)O)C(O)C1O (stereo not given)
> 100 µM: EKVX NSCLC | HCC-2998 colon | MALME-3M melanoma | TK-10 renal | K-562 leukemia | CCRF-CEM leukemia | HCT-116 colon | SF-268 CNS | MOLT-4 leukemia | A498 renal | U251 CNS | OVCAR-3 ovarian | DLD-1 colon | NCI-H23 lung | HOP-92 NSCLC | SK-OV-3 ovarian | KM20L2 colon | SR leukemia | OVCAR-4 ovarian | SK-MEL-28 melanoma | SNB-75 CNS | HT29 colon | DMS 114 small cell lung | LOX IMVI melanoma | COLO 205 colon | SNB-19 CNS | UACC-257 melanoma | SF-295 CNS | SK-MEL-5 melanoma | KM12 colon | ACHN renal | LXFL 529 NSCLC | SK-MEL-2 melanoma | SN12C renal | HOP-62 NSCLC | RXF 393 renal | SNB-78 CNS | OVCAR-5 ovarian | OVCAR-8 ovarian | NCI-H226 lung | IGROV1 ovarian | UACC-62 melanoma | NCI-H460 lung | NCI-H522 lung | DMS 273 small cell lung | HCT-15 colon | XF 498 CNS | A549 NSCLC | HL-60(TB) leukemia | SF-539 CNS | M14 melanoma | SW-620 colon

COC(=O)/C=C1/CCC(C(=O)OC)N1 (stereo not given)
> 100 µM: EKVX NSCLC | HCC-2998 colon | CAKI-1 renal | UO-31 renal | TK-10 renal | K-562 leukemia | CCRF-CEM leukemia | M19-MEL melanoma | HCT-116 colon | SF-268 CNS | MOLT-4 leukemia | A498 renal | U251 CNS | 786-0 renal | OVCAR-3 ovarian | DLD-1 colon | NCI-H23 lung | HOP-92 NSCLC | SK-OV-3 ovarian | KM20L2 colon | SR leukemia | OVCAR-4 ovarian | SK-MEL-28 melanoma | SNB-75 CNS | DMS 114 small cell lung | LOX IMVI melanoma | COLO 205 colon | SNB-19 CNS | UACC-257 melanoma | SF-295 CNS | SK-MEL-5 melanoma | KM12 colon | ACHN renal | LXFL 529 NSCLC | SK-MEL-2 melanoma | SN12C renal | HOP-62 NSCLC | RXF 393 renal | SNB-78 CNS | OVCAR-8 ovarian | IGROV1 ovarian | UACC-62 melanoma | NCI-H460 lung | DMS 273 small cell lung | HCT-15 colon | XF 498 CNS | A549 NSCLC | HL-60(TB) leukemia | SF-539 CNS | M14 melanoma | RPMI-8226 leukemia | SW-620 colon

COc1ccc(OC)c2c1CC(C(=O)O)(C(=O)O)CC2=O
> 100 µM: EKVX NSCLC | HCC-2998 colon | CAKI-1 renal | UO-31 renal | MALME-3M melanoma | TK-10 renal | K-562 leukemia | HCT-116 colon | SF-268 CNS | MOLT-4 leukemia | U251 CNS | 786-0 renal | OVCAR-3 ovarian | NCI-H23 lung | HOP-92 NSCLC | SK-OV-3 ovarian | KM20L2 colon | OVCAR-4 ovarian | SK-MEL-28 melanoma | SNB-75 CNS | DMS 114 small cell lung | LOX IMVI melanoma | SNB-19 CNS | SK-MEL-5 melanoma | KM12 colon | ACHN renal | LXFL 529 NSCLC | SK-MEL-2 melanoma | SN12C renal | HOP-62 NSCLC | RXF 393 renal | SNB-78 CNS | OVCAR-5 ovarian | NCI-H226 lung | IGROV1 ovarian | UACC-62 melanoma | HCT-15 colon | A549 NSCLC | HL-60(TB) leukemia | M14 melanoma | SW-620 colon
